# Results reported in US11066416B2, “Rapafucin derivative compounds and methods of use thereof” (The Johns Hopkins University, priority 2016, dated 2021).
# Experiments:
# Assay type in all cases: cell-based
# [1] = tested on: specific cell lines indicated in each assay; experiment: Cell proliferation assay (Prolif.), IC50 or single concentration, cell line as indicated in each table; details: A549 cells; for Prolif, A549: Table 10; for Rel. Prolif., A549: single concentration, response relative to DMSO
# Experimental: (§1) Cell Proliferation Assay (Prolif.) Guo et al. (2018) Nat. Chem. 11:254-63. Specific cell lines are indicated in each assay and cultured in complete growth media. Activity is scored according to the IC50 values relative to DMSO control. “Low” indicates an IC50 greater than 600 nM, “Medium” indicates an IC50 between 300 nM and 600 nM “High” indicates an IC50 less than 300 nM. “Rel.Uptake” refers to uptake activity characterization relative to a single concentration assay. “Low” indicates a response greater than 0.6 times the activity relative to DMSO, “Medium” indicates a response between 0.6 and 0.3 times the activity relative to DMSO, “High” indicates a response less than 0.3 times the activity relative to DMSO.
# [2] = tested on: nucleoside uptake (3H-Thymidine); experiment: Rel.Uptake: nucleoside uptake, single concentration assay, cell line as indicated in each table; details: 293T, nucleoside uptake, response relative to DMSO
# Experimental: Nucleoside Uptake Assay (uptake). Nuceloside uptake assays were performed with using 3H-Thymidine as described in Guo et al. (2018) Nat. Chem. 11:254-63. Specific cell lines are indicated in each assay and cultured in complete growth media. Activity is scored according to the IC50 values relative to DMSO control. “Low” indicates an IC50 greater than 600 nM, “Medium” indicates an IC50 between 300 nM and 600 nM “High” indicates an IC50 less than 300 nM. “Rel.Uptake” refers to uptake activity characterization relative to a single concentration assay. “Low” indicates a response greater than 0.6 times the activity relative to DMSO, “Medium” indicates a response between 0.6 and 0.3 times the activity relative to DMSO, “High” indicates a response less than 0.3 times the activity relative to DMSO.
# [3] = tested on: H929; experiment: Cell proliferation assay (Prolif.), H929; details: for Prolif. H929: H929 cells, IC50 class relative to DMSO control; for Rel. Prolif., NCI-H929: NCI-H929 cells, single concentration, response relative to DMSO
# Experimental: as §1
Structure (SMILES),"Prolif, A549 [1]","Rel. Prolif., A549 [1]",also measured
CCCC[C@H]1C(=O)N[C@@H](Cc2ccc3ccccc3c2)C(=O)N(C)[C@@H](COC(C)(C)C)C(=O)NCC(=O)N(C)CCC=CC(=O)OCC(C)(C)C(=O)C(=O)N2CCN(C(=O)OCC3c4ccccc4-c4ccccc43)C[C@H]2C(=O)O[C@H](CCc2ccc(OC)c(OC)c2)c2cccc(c2)OCC(=O)N1C [Compound 571],low,low,–
CCCC[C@H]1C(=O)N[C@@H](Cc2ccc3ccccc3c2)C(=O)N(C)[C@@H](COC(C)(C)C)C(=O)NCC(=O)N(C)CCC=CC(=O)OCC(C)(C)C(=O)C(=O)N2CCCC[C@H]2C(=O)O[C@H](CCc2ccc(OC)c(OC)c2O)c2cccc(c2)OCC(=O)N1C [Compound 565],medium,medium,–
CCCC[C@H]1C(=O)N[C@@H](Cc2ccc3ccccc3c2)C(=O)N(C)[C@@H](COC(C)(C)C)C(=O)NCC(=O)N(C)CCC=CC(=O)OCC(C)(C)C(=O)C(=O)N2CCCC[C@H]2C(=O)O[C@H](CCc2cc(OC)c(OC)cc2O)c2cccc(c2)OCC(=O)N1C [Compound 567],medium,medium,–
CCCC[C@H]1C(=O)N[C@@H](Cc2ccc3ccccc3c2)C(=O)N(C)[C@@H](COC(C)(C)C)C(=O)NCC(=O)N(C)CCC=CC(=O)OCC(C)(C)C(=O)C(=O)N2CCCC[C@H]2C(=O)O[C@H](CCc2ccc(OC)c(OC)c2)c2cc(ccc2F)OCC(=O)N1C [Compound 573],low,low,–
CCCC[C@H]1C(=O)N[C@@H](Cc2ccc3ccccc3c2)C(=O)N(C)[C@@H](COC(C)(C)C)C(=O)NCC(=O)N(C)CCC=CC(=O)OCC(C)(C)C(=O)C(=O)N2CCCC[C@H]2C(=O)O[C@H](CCc2ccc(OC)c(OC)c2)c2cccc(c2F)OCC(=O)N1C [Compound 1563],high,–,"Rel. Uptake, 293T [2]: high"
CCCC[C@H]1C(=O)N[C@@H](Cc2ccc3ccccc3c2)C(=O)N(C)[C@@H](COC(C)(C)C)C(=O)NCC(=O)N(C)CCC=CC(=O)OCC(C)(C)C(=O)C(=O)N2CCCC[C@H]2C(=O)O[C@H](CCc2cc(O)c(OC)c(OC)c2)c2cccc(c2)OCC(=O)N1C [Compound 566],medium,medium,–
CCCC[C@H]1C(=O)N[C@@H](Cc2ccc3ccccc3c2)C(=O)N(C)[C@@H](COC(C)(C)C)C(=O)NCC(=O)N(C)CCC=CC(=O)OCC(C)(C)C(=O)C(=O)N2CCCC[C@H]2C(=O)O[C@H](CCc2ccc(OC)c(OC)c2)c2cncc(c2)OCC(=O)N1C [Compound 1565],low,–,"Rel. Uptake, 293T [2]: low"
CCCC[C@H]1C(=O)N[C@@H](Cc2ccc3ccccc3c2)C(=O)N(C)[C@@H](COC(C)(C)C)C(=O)NCC(=O)N(C)CCC=CC(=O)OCC(C)(C)C(=O)C(=O)N2CCCC[C@H]2C(=O)O[C@H](CCc2cc(F)c(OC)c(OC)c2)c2cccc(c2)OCC(=O)N1C [Compound 568],medium,medium,–
CCCC[C@H]1C(=O)N[C@@H](Cc2ccc3ccccc3c2)C(=O)N(C)[C@@H](COC(C)(C)C)C(=O)NCC(=O)N(C)CCC=CC(=O)OCC(C)(C)C(=O)C(=O)N2CCCC[C@H]2C(=O)O[C@H](CCc2cc(OC)c(OC)c(OC)c2)c2cccc(c2)OCC(=O)N1C [Compound 560],medium,medium,–
COc1ccc(CC[C@H]2OC(=O)[C@@H]3CCCCN3C(=O)C(=O)C(C)(C)COC(=O)C=CCCN(C)C(=O)[C@@H](Cc3ccccc3)NC(=O)CN(C)C(=O)[C@@H](Cc3ccccc3)NC(=O)[C@H](Cc3ccc(OC(=O)N4CCOCC4)cc3)N(C)C(=O)COc3cccc2c3F)cc1OC [Compound 867],–,–,"Prolif. H929 [3]: low; Rel. Prolif., NCI-H929 [3]: low"
COc1ccc(CC[C@H]2OC(=O)[C@@H]3CCCCN3C(=O)C(=O)C(C)(C)COC(=O)C=CCCN(C)C(=O)[C@@H](Cc3ccccc3)NC(=O)CN(C)C(=O)[C@@H](Cc3ccccc3)NC(=O)[C@H](Cc3ccc(OC(=O)N4CCOCC4)cc3)N(C)C(=O)CCC(=O)Nc3cccc2c3)cc1OC [Compound 869],–,–,"Prolif. H929 [3]: low; Rel. Prolif., NCI-H929 [3]: low"
CCCC[C@H]1C(=O)N[C@@H](Cc2ccc3ccccc3c2)C(=O)N(C)[C@@H](COC(C)(C)C)C(=O)NCC(=O)N(C)CCC=CC(=O)OCC(C)(C)C(=O)C(=O)N2CCCC[C@H]2C(=O)O[C@H](CCc2cc(OC)c(OC)cc2OC)c2cccc(c2)OCC(=O)N1C [Compound 562],medium,medium,–
COc1ccc(CC[C@H]2OC(=O)[C@@H]3CCCCN3C(=O)C(=O)C(C)(C)COC(=O)C=CCCN(C)C(=O)[C@@H](Cc3ccccc3)NC(=O)CN(C)C(=O)[C@@H](Cc3ccccc3)NC(=O)[C@H](Cc3ccc(OC(=O)N4CCOCC4)cc3)NC(=O)COc3cccc2c3)cc1OC [Compound 877],–,–,"Prolif. H929 [3]: low; Rel. Prolif., NCI-H929 [3]: kmv"
CCCC[C@H]1C(=O)N[C@@H](Cc2ccc3ccccc3c2)C(=O)N(C)[C@@H](COC(C)(C)C)C(=O)NCC(=O)N(C)CCC=CC(=O)OCC(C)(C)C(=O)C(=O)N2CCCC[C@H]2C(=O)O[C@H](CCc2ccc(OC)c(OC)c2)c2ccc(F)c(c2)OCC(=O)N1C [Compound 576],medium,medium,–
CCCC[C@H]1C(=O)N[C@@H](Cc2ccc3ccccc3c2)C(=O)N(C)[C@@H](COC(C)(C)C)C(=O)NCC(=O)N(C)CCC=CC(=O)OCC(C)(C)C(=O)C(=O)N2CCCC[C@H]2C(=O)O[C@H](CCc2ccc(OC)c(O)c2)c2cccc(c2)OCC(=O)N1C [Compound 1564],high,–,"Rel. Uptake, 293T [2]: high"
CCCC[C@H]1C(=O)N[C@@H](Cc2ccc3ccccc3c2)C(=O)N(C)[C@@H](COC(C)(C)C)C(=O)NCC(=O)N(C)CCC=CC(=O)OCC(C)(C)C(=O)C(=O)N2CCCC[C@H]2C(=O)O[C@H](CCc2cc(OC)cc(OC)c2OC)c2cccc(c2)OCC(=O)N1C [Compound 563],low,low,–
CCCC[C@H]1C(=O)N[C@@H](Cc2ccc3ccccc3c2)C(=O)N(C)[C@@H](COC(C)(C)C)C(=O)NCC(=O)N(C)CCC=CC(=O)OCC(C)(C)C(=O)C(=O)N2CCCC[C@H]2C(=O)O[C@H](CCc2ccc(OC)c(OC)c2F)c2cccc(c2)OCC(=O)N1C [Compound 570],medium,medium,–
CCCC[C@H]1C(=O)N[C@@H](Cc2ccc3ccccc3c2)C(=O)N(C)[C@@H](COC(C)(C)C)C(=O)NCC(=O)N(C)CCC=CC(=O)OCC(C)(C)C(=O)C(=O)N2CCCC[C@H]2C(=O)O[C@H](CCc2ccc(OC)c(OC)c2OC)c2cccc(c2)OCC(=O)N1C [Compound 561],medium,medium,–
CCCC[C@H]1C(=O)N[C@@H](Cc2ccc3ccccc3c2)C(=O)N(C)[C@@H](COC(C)(C)C)C(=O)NCC(=O)N(C)CCC=CC(=O)OCC(C)(C)C(=O)C(=O)N2CCCC[C@H]2C(=O)O[C@H](CCc2c(OC)ccc(OC)c2OC)c2cccc(c2)OCC(=O)N1C [Compound 564],low,low,–
CCCC[C@H]1C(=O)N[C@@H](Cc2ccc3ccccc3c2)C(=O)N(C)[C@@H](COC(C)(C)C)C(=O)NCC(=O)N(C)CCC=CC(=O)OCC(C)(C)C(=O)C(=O)N2CCCC[C@H]2C(=O)O[C@H](CCc2ccc(OC)c(OC)c2)c2cc(F)cc(c2)OCC(=O)N1C [Compound 574],low,low,–
CC[C@H](C)[C@H]1C(=O)NCC(=O)N(C)CC/C=C\C(=O)OCC(C)(C)C(=O)C(=O)N2CCCC[C@H]2C(=O)O[C@H](CCc2ccc(OC)c(OC)c2)c2cccc(c2)NC(=O)CCC(=O)N(C)[C@@H](CC(C)C)C(=O)N[C@H](Cc2ccccc2)C(=O)N1C [Compound 1592],–,–,"IC50 ([1]; Homo sapiens, Table 17): < 300 nM; Rel. Uptake, 293T [2]: Low (“Low” indicates a response greater than 0.6 times the activity relative to DMSO)"
CCCC[C@H]1C(=O)N[C@@H](Cc2ccc3ccccc3c2)C(=O)N(C)[C@@H](COC(C)(C)C)C(=O)NCC(=O)N(C)CCC=CC(=O)OCC(C)(C)C(=O)C(=O)N2CCN(C)C[C@H]2C(=O)O[C@H](CCc2ccc(OC)c(OC)c2)c2cccc(c2)OCC(=O)N1C [Compound 572],medium,medium,–
CCCC[C@H]1C(=O)N[C@@H](Cc2ccc3ccccc3c2)C(=O)N(C)[C@@H](COC(C)(C)C)C(=O)NCC(=O)N(C)CCC=CC(=O)OCC(C)(C)C(=O)C(=O)N2CCCC[C@H]2C(=O)O[C@H](CCc2cc(OC)c(OC)cc2F)c2cccc(c2)OCC(=O)N1C [Compound 569],medium,medium,–
